# What was measured:
# [1] = Fluorescence titration with ZnCl2 in aqueous/organic mixed solvent (1:9 MOPS buffer pH 7.2/CH3CN); type: binding; conditions: λex 400 nm
# Procedure: FIG. 9 is a graph depicting emission spectra for the titration of zinc(II) ion indicator (4) (2.5 μM) with ZnCl2 (0-22 μM) in water-CH3CN (1:9) mixture (MOPES buffer, 10 mM, pH=7.2, λex=400 nm).
# The titration experiments using zinc(II) ion indicator (4) were also carried out in an aqueous/organic mixed solvent (1:9 MOPS buffer (pH 7.2)/CH3CN). […] (FIG. 9). Comparing to the observations in CH3CN, the fluorescence is rather dim. The loss of fluorescence can be explained by the hydrogen bonding interaction between the protic solvent and the carbonyl groups on NDI, which provides a non-radiative deactivation pathway. See F. Würthner, S. Ahmed, C. Thalacker and T. Debaerdemaeker, Chem. Eur. J., 2002, 8, 4742. […] By extension, the fluorescence of zinc(II) ion indicators (4) and (5) would not be affected by the fluctuations of pH within the physiological range.
# [2] = Fluorescence response to various metal ions (metal ion selectivity); conditions: indicator 3.0 μM, 1:9 water/CH3CN pH 7.2, λex 400 nm
# Procedure: FIG. 8 is a chart depicting fluorescence spectroscopic responses of zinc(II) ion indicator (4) (3.0 μM, λex 400 nm) to various metal ions in 1:9 water/CH3CN mixture at pH 7.2 (30 mM of MOPS buffer). Clear bars represent intensity in the presence of various metal ions (perchlorate salt). Metal ion concentrations of Na^+, K^+, Ca^2+, Mg^2+ were 1.0 mM and for other ions 30 μM. Hatch marked bars represent the fluorescence following subsequent addition of Zn(ClO4)2 (30 μM).
# The fluorescence dependence of zinc(II) ion indicator (4) on the identity of metal ion was evaluated (FIG. 8). […] The observed metal ion selectivity can be understood based on the Irving-Williams series and HSAB theory.
# [3] = test system: mitochondria of HeLa (S3) cells transfected with mCerulean3 TOMM-20; assay: Colocalization by confocal fluorescence microscopy with mCerulean3 TOMM-20; type: cell-based
# Procedure: FIGS. 13A through 13F are confocal fluorescence images of living HeLa (S3) cells transfected with mCerulean3 TOMM-20 that were incubated with zinc(II) ion indicator (5) (1.8 μM, A-C) and zinc(II) ion indicator (4) (6.0 μM, D-F) for 30 min. FIGS. 13A (zinc(II) ion indicator (5)) and 13D (zinc(II) ion indicator (4)) depict the green channel, λex 405 nm, λem 425-475 nm. FIGS. 13B (zinc(II) ion indicator (5)) and 13E (zinc(II) ion indicator (4)) depict the red channel, λex 543 nm, λem 580-680 nm. FIGS. 13C (zinc(II) ion indicator (5)) and 13F (zinc(II) ion indicator (4)) depict the merged image. Scale bar: 10 μm.
# FIGS. 14A through 14F are confocal fluorescence images of live HeLa (S3) cells transfected with mCer3 TOMM20 that were incubated with FRET acceptor compound (3) (9.0 μM, A-C) and FRET acceptor compound (2) (52 μM, D-F) for 30 min. FIGS. 14A (FRET acceptor compound (3)) and 14D (FRET acceptor compound (2)) depict the green channel, λex 405 nm, λem 425-475 nm. FIGS. 14B (FRET acceptor compound (3)) and […] (FRET acceptor compound (2)) depict the red channel, λex 543 nm, λem 580-680 nm. FIGS. 14C (FRET acceptor compound (3)) and […] (FRET acceptor compound (2)) depict the merged image. Scale bar: 10 μm.
# The colocalization properties of red-emitting compounds (2-5) were studied using HeLa (S3) cells transfected with mCerulean3 TOMM-20, a cyan fluorescent protein (CFP) fused with a mitochondrial targeting sequence whose emission is shown in the green channel. See FIG. 13A for emission spectrum from cells incubated with TPP-containing zinc(II) ion indicator (5), and see FIG. 13D for emission spectrum from cells incubated with zinc(II) ion indicator (4). […] The overall intracellular fluorescence intensity from zinc(II) ion indicator (4) is low, which is consistent with the observed weak fluorescence of the NDI fluorophore in aqueous solutions.
# The localization properties of (2-5) were determined via costaining experiments using mCerulean3 TOMM-20, a mitochondrial-specific fusion of the cyan fluorescent protein (CFP) mCerulean3. mCerulean3 is a bright monomeric FP with an emission maximum of 475 nm. HeLa S3 cells were seeded onto Bioptechs Delta-T dishes 48 h prior to experimentation, then transfected about 24 h prior to loading the indicator using an Effectene Transfection Reagent Kit (Qiagen) and 1 μg of DNA. A 1:1 mixture of Dulbecco's modified Eagle's medium and Ham's F-12 (Invitrogen) supplemented with 12.5% fetal bovine serum was used as the culture medium. On the day of experimentation cells were rinsed twice with media and incubated with indicator 5 (1.8 μM) for 30 min. Prior to imaging cells were again rinsed twice with media, then provided with 1 mL of fresh media.
# All cells were imaged using an Olympus Fluoview FV1000 confocal laser scanning microscope with an Olympus PLAPO 60× oil-immersion objective (NA=1.4). During experimentation cells were maintained at 37° C. and 5.0% CO2 using a Bioptechs Delta T4 Culture Dish Controller. Individual cells were imaged sequentially in two channels, using a 543 nm Helium-Neon laser line to excite the indicator and a 405 nm diode laser line to excite the FP. Cells were selected by the quality of FP expression, as the indicators tended to load homogenously into the cells. All data was collected using FluoView Software (Olympus). Laser power and detection settings were optimized for each image to fill LUTs. A pinhole size of 200 μm was used for each image. […]
structure (smiles),measurement,setting,value
COCCCNc1cc2c3c(c(NCCOc4ccc(/C=C/c5ccc(-c6ccc(COCCOCCOC)cn6)nc5)cc4)cc4c3c1C(=O)N(CCCOC)C4=O)C(=O)N(CCCOC)C2=O [Compound (4)],fluorescence enhancement on increasing [Zn^2+],[1],3 fold
same,fluorescence response to cadmium(II),[2]; 30 μM metal ion,acts similarly to zinc(II) in resulting strong fluorescence from NDI
same,fluorescence response to iron(II) and copper(II),[2]; 30 μM metal ion,quench fluorescence
same,fluorescence response to manganese(II) and lead(II),[2]; 30 μM metal ion,fail to alter the fluorescence
same,fluorescence response to alkali and alkaline earth metal ions,"[2]; Na+, K+, Ca2+, Mg2+ 1.0 mM",do not elicit a fluorescence response
same,intracellular appearance,"[3]; 6.0 μM, 30 min",forms particulates intracellularly
same,colocalization with mitochondrial CFP (mCerulean3 TOMM-20),"[3]; 30 min incubation, (5) 1.8 μM, (4) 6.0 μM, (3) 9.0 μM, (2) 52 μM",poor colocalization with the CFP
same,overall intracellular fluorescence intensity,"[3]; red channel λex 543 nm, λem 580-680 nm",low
